Test results reported in patent US20250082759A1, “COMPOSITIONS COMPRISING THERAPEUTIC NUCLEIC ACID AND TARGETED SAPONIN FOR THE TREATMENT OF MUSCLE-WASTING DISORDERS” (SAPREME TECHNOLOGIES B.V., priority 2021, published 2025).
Oligonucleotides are written 5' to 3', each unit as a sugar letter and its base; * is a phosphorothioate linkage, no mark a phosphodiester; rarer units and linkages stand in square brackets, end groups in braces. Plain capitals give the bases only. m = 2'-O-methyl

Key:
dystrophin exon 23 = assay: Exon 23 skip analysis in differentiated murine C2C12 myotubes; type: cell-based, mouse
Procedure: Murine myoblast cell line C2C12 was maintained in 10% FBS DMEM medium+Pen/Strep and plated at 240,000 cells per well (cpw) in 24-well plates or 40,000 cpw in 96-well plates (wp) in maintenance medium (10% FBS in DMEM medium+Pen/Strep) and incubated at 37° C. with 5% CO2. Twenty-four hours after seeding, cells were switched to differentiation media (2% horse serum in DMEM) and incubated for 3 days before refreshing the medium. After another 24 hours, medium was refreshed again and compounds were added and incubated for 48 hours. Differentiation medium was then refreshed (without compounds), and cells were incubated for another 24 hours. At 72 hours total post treatment, cells in the 24-wp were harvested for exon skip analysis and the cell viability was assessed on the 96-wp.
For analysis of skip from murine cell lines, cells were harvested and RNA was isolated using 0.5 ml TRIzol™ Reagent (Thermo Scientific) per sample, according to the manufacturer's instruction. For analysis of tissue, 30-50 mg frozen tissue was first cut into smaller pieces and mRNA was isolated using TRIzol™ Reagent (Thermo Scientific) and a TissueLyser LT (Qiagen) according to the manufacturer's instruction. For cDNA synthesis per sample, to 0.5 μg RNA in 5.0 μl, 10.0 μl ddH2O, 4 μl 5× iScript™ Reaction Mix and 1.0 μl iScript™ Reverse Transcriptase (BioRad) were added to yield a total volume of 20.0 μl per reaction. The RT-PCR was run for 5 min at 25° C., 60 min at 46° C., and 2 min at 95° C. For skip analysis, SapphireAmp™ Fast PCR Master Mix (TakaraBio) was used according to the manufacturer's instructions. To this end, 9.7 μl RNAse free water, 12.5 μl of 2× Master Mix, 0.4 μl of 10 μM FW primer 5′-[…]-3′ (SEQ ID NO: 14) and 0.4 μl of […] RV primer 5′-[…]-3′ (SEQ ID NO: 15) were added to a PCR tube, mixed, after which 2 μl cDNA (50 ng) was added, to yield a total volume of 25 μl. These samples were subjected to a PCR run of 1 min at 94° C., 35 cycles of 5 sec at 98° C., 5 sec at 55° C., 5 sec at 72° C., followed by 1 min at 72° C. Samples were mixed with 2 μl 6× loading buffer, then 16 μl were loaded onto an 2% agarose gel and ran for 60-90 min at 80 V. Gels were imaged and band intensities were quantified with a ChemiDoc™ XRS+System and Image Lab™ Software (BioRad). The expected non-skipped product has a size of 788 bp, and the skip product of 575 bp, respectively.
Murine myoblast cell line C2C12 was maintained in 10% FBS DMEM medium+Pen/Strep and plated at 240,000 cells per well (cpw) in 24-well plates, or at 40,000 cpw in 96-well plates (wp), in maintenance medium (10% FBS in DMEM medium+Pen/Strep) and incubated at 37° C. with 5% CO2. Twenty-four hours after seeding, cells were switched to differentiation media (2% horse serum in DMEM) and incubated for 3 days before refreshing the medium. After another 24 hours, medium was refreshed again and compounds were added and incubated for 48 hours. At 48 hours total post treatment, cells in the 24-wp were harvested for exon skip analysis and the cell viability was assessed on the 96-wp.
Performed as described above in the Methods (as performed in Examples 1-5).

dystrophin exon 51 = assay: Exon 51 skip analysis in differentiated human myotubes from a non-DMD (healthy) donor (KM155); type: cell-based; conditions: for % exon skipping: 72 hrs
Procedure: Immortalized human myoblasts from non-DMD donors (KM155) and myoblasts from a DMD-affected donor (DM8036) were cultured in Skeletal Muscle Cell Growth Medium (PromoCell, Germany) with supplementary pack according to manufacturer's instructions, further supplemented with 15% fetal bovine serum (Gibco, United Kingdom), and 0.5% gentamicin (Sigma-Aldrich, USA). For differentiation, cells were seeded on a 0.5% gelatine-coated surface, and at ˜70-80% confluence, the proliferation medium was replaced by DMEM (Gibco) supplemented with 2% FBS (Gibco), 2% GlutaMAX, and 1% glucose (Sigma-Aldrich) and 0.5% gentamycin. Treatments were started after at least 3 days up to a maximum of 5 days of differentiation (based on the presence of differentiated myotubes).
RNA was isolated with the TRIsure Isolation Reagent (Bioline) and chloroform extraction; isopropanol precipitation of RNA from the aqueous phase was performed as known to someone skilled in the art. For cDNA synthesis, 1000 ng of total RNA was used and diluted in an appropriate amount of RNase-free water to yield 8 μl RNA dilution. The priming premixed contained 1 μl dNTP mix (10 mM each) and 1 μl specific reverse primer (for KM155, h53R 5′-[…]-3′ [SEQ ID NO: 5]; for DM8036, h55R 5′-[…]-3′ [SEQ ID NO: 6]). This mixture was heated for 5 min at 70° C., then chilled on ice for at least 1 min. A reaction mixture was prepared containing 0.5 μl rRNasin (Promega), 4.0 μl RT buffer, 1.0 μl Tetro RT (Bioline), and 4.5 μl RNase-free water, and was added to the chilled mixture to yield a total volume of 20 μl per reaction. The RT-PCR was run for 60 min at 42° C., then 5 min at 85° C., and chilled on ice. For skip analysis, a nested PCR approach was followed. To this end, in the first PCR, 3 μl cDNA were added to a mix of 2.5 μl 10× SuperTaq PCR buffer, 0.5 μl dNTP mix (10 mM each), 0.125 μl Taq DNA polymerase TAQ-RO (5 U/μl; Roche) 16.875 μl RNase-free water and 1 μl (10 pmol/μl) of each primer flanking the targeted exons were used: for KM155, h48F 5′-[…]-3′ [SEQ ID NO: 7] and h53R 5′-[…]-3′ [SEQ NO: ID 5]; for DM8036, h47F2 5′-[…]-3′ [SEQ ID NO: 8] and h54R 5′-[…]-3′ [SEQ ID NO: 9]. These samples were subjected to a PCR run of 5 min at 94° C., then 25 cycles with 40 sec at 94° C., 40 sec at 60° C., 180 sec at 72° C., after which for 7 min at 72° C. For the second PCR, 1.5 μl PCR1 sample were added to a mix of 5 μl 10× SuperTaq PCR buffer, 1 μl dNTP mix (10 mM each), 0.25 μl Taq DNA polymerase TAQ-RO (5 U/μl; Roche), 38.25 μl RNase-free water and 2 μl (10 pmol/μl) of each primer flanking the targeted exons were used: for KM155, h49F 5′-[…]-3′ [SEQ ID NO: 10] and h52R2 5′-[…]-3′ [SEQ ID NO: 11]; for DM8036, h47F 5′-[…]-3′ [SEQ ID NO: 12] and h53R 5′-[…]-3′ [SEQ ID NO: 13]. These samples were subjected to a PCR run of 5 min at 94° C., then 32 cycles with 40 sec at 94° C., 40 sec at 60° C., 60 sec at 72° C., after which for 7 min at 72° C. Exon skipping levels were quantified with the Femto Pulse System using the Ultra Sensitivity NGS Kit (Agilent), according to the manufacturer's instructions. Alternatively, the specific PCR fragments were analyzed using Bioanalyzer 2100 with DNA1000 chip (lab-on-a-chip; Agilent), or separated on 2% agarose gels run at 120 V. Gels were imaged and band intensities were quantified using ImageJ. The expected non-skipped product has a size of 408 bp (KM155) and 475 bp (DM8036), and the skip product of 175 bp (KM155) or 242 bp (DM8036), respectively.
Immortalized human myoblasts from non-DMD donors (KM155) were cultured as described above in the Methods (as performed in Examples 1-5).
RNA was isolated with the TRIsure Isolation Reagent (Bioline) and chloroform extraction; isopropanol precipitation of RNA from the aqueous phase was performed as known to someone skilled in the art. […]

With “IGF-1-SO1861+500 nM M23D: IGF-1-SO1861 (DAR2.7) co-administered with 500 nM M23D” the “exon 23 skip” value (dystrophin exon 23; 133 nM IGF-1-SO1861 + 500 nM M23D) was 8%, the “exon 23 skip” value (dystrophin exon 23; 667 nM IGF-1-SO1861 + 500 nM M23D) was 11% and the “exon 23 skip” value (dystrophin exon 23; 3333 nM IGF-1-SO1861 + 500 nM M23D) was 19%.

For “M23D: PMO 5′-GGCCAAACCTCGGCTTACCTGAAAT-3′ [SEQ ID NO: 3] that induces exon 23 skipping of mouse dystrophin (all phosphorodiamidate morpholino (PMO))”, the “exon 23 skip” value (dystrophin exon 23; 500 nM M23D alone (0 nM conjugate)) was 5% and the “exon 23 skip activity” value (dystrophin exon 23; 500 nM M23D alone, 48 h) was “no exon skip activity”.

With “DMD-ASO: 2′O-methyl-phosporothioate antisense oligonucleotide 5′-UCAAGGAAGAUGGCAUUUCU-3′ [SEQ ID NO: 1]; exon 51 skipping; same sequence and chemistry as drisapersen (antisense mU*mC*mA*mA*mG*mG*mA*mA*mG*mA*mU*mG*mG*mC*mA*mU*mU*mU*mC*mU; further chemistry not fully specified)” the “improvement in potency with vs without SO1861-EMCH or SO1861-SC-Mal co-administration” value (dystrophin exon 51) was “one to two orders of magnitude lower”, the “% exon skipping” value (dystrophin exon 51; 0.08 μM DMD oligo alone, Lab-on-a-chip) was 0% and the “% exon skipping” value (dystrophin exon 51; 0.31 μM DMD oligo alone, Lab-on-a-chip) was 0%. For the same substance, the “% exon skipping” value (dystrophin exon 51; 1.25 μM DMD oligo alone, Lab-on-a-chip) was 0% and the “% exon skipping” value (dystrophin exon 51; 5 μM DMD oligo alone, Lab-on-a-chip) was 1%.

In the case of “DMD-PMO: PMO 5′-CTCCAACATCAAGGAAGATGGCATTTCTAG-3′ [SEQ ID NO: 2]; exon 51 skipping; same sequence but not 5′-modifications as eteplirsen (all phosphorodiamidate morpholino (PMO))”, the “improvement in potency with vs without SO1861-EMCH or SO1861-SC-Mal co-administration” value (dystrophin exon 51) is reported as “one to two orders of magnitude lower”, the “% exon skipping” value (dystrophin exon 51; 0.08 μM DMD oligo alone, Femto) is reported as 0% and the “% exon skipping” value (dystrophin exon 51; 0.31 μM DMD oligo alone, Femto) is reported as 0%. For the same substance, the “% exon skipping” value (dystrophin exon 51; 1.25 μM DMD oligo alone, Femto) was 0%, the “% exon skipping” value (dystrophin exon 51; 5 μM DMD oligo alone, Femto) was 0% and the “% exon skipping” value (dystrophin exon 51; 20 μM DMD oligo alone, Femto) was 4%.
